Reference: PMC8137473, “Preclinical trial of a MAP4K4 inhibitor to reduce infarct size in the pig: does cardioprotection in human stem cell-derived myocytes predict success in large mammals?” (Basic Research in Cardiology, 2021)

Experiments:
[1] = target: MAP4K4 (Homo sapiens, UniProt O95819); assay: cell-free biochemical assay, MAP4K4 inhibition
Text: DMX-10001, a rapidly hydrolyzed phosphate pro-drug of DMX-5804, was produced by Domainex Ltd, by a modification of the latter’s synthetic route, attaching a hydrolysable phosphate group via a linker to the core of DMX-5804 (Fig. 1a). This removes a key hydrogen bonding group and prevents DMX-10001 from binding to the hinge region of the MAP4K4 kinase domain. […] Furthermore, this modest value is likely driven by minute levels of DMX-5804 either present in the sample or generated during by hydrolysis during the assay.

[2] = system: porcine model of MI; assay: efficacy study: convertible ventricular fibrillation and defibrillation; set-up: species or system swine; details: in vivo
Description: Investigators involved in the experimental protocol and analysis of the data were blinded to the treatment status of each pig. Animals were randomly assigned to the treatment groups in two blocks, using a random number series generated online. To control further for potential investigator bias, inclusion and exclusion criteria were formulated prior to the onset of the study. Only healthy pigs weighing 38–48 kg, with a body temperature between 37.0 and 40.0 °C at the start of surgical preparation, were included. Exclusion criteria were: (i) Encountering ventricular fibrillation (VF) during the experimental protocol that could not be converted to sinus rhythm within 2 min. (ii) Encountering VF > 4 times before starting the drug or vehicle infusion. (iii) Developing progressive pump failure (mean arterial pressure (MAP) < 30 mmHg) during first 30 min of reperfusion. […]
The LAD was catheterized with a standard clinical guiding catheter (JL3.5, 6F, Medtronic, Minneapolis, MN), and quantitative coronary angiography (CAAS, PIE Medical, Maastricht, The Netherlands) was performed following 2 mg isosorbidedinitrate (Cedocard, Nycomed, Hoofddorp, The Netherlands) and using iodixanol as contrast agent (Visipaque™, GE Healthcare BV, Eindhoven, The Netherlands). […] Heart rate, aortic blood pressure, and ECG were monitored until 2 h of reperfusion.

Chain of MAP4K4 (O95819 whole entry, species assumed, the tested form may be a part): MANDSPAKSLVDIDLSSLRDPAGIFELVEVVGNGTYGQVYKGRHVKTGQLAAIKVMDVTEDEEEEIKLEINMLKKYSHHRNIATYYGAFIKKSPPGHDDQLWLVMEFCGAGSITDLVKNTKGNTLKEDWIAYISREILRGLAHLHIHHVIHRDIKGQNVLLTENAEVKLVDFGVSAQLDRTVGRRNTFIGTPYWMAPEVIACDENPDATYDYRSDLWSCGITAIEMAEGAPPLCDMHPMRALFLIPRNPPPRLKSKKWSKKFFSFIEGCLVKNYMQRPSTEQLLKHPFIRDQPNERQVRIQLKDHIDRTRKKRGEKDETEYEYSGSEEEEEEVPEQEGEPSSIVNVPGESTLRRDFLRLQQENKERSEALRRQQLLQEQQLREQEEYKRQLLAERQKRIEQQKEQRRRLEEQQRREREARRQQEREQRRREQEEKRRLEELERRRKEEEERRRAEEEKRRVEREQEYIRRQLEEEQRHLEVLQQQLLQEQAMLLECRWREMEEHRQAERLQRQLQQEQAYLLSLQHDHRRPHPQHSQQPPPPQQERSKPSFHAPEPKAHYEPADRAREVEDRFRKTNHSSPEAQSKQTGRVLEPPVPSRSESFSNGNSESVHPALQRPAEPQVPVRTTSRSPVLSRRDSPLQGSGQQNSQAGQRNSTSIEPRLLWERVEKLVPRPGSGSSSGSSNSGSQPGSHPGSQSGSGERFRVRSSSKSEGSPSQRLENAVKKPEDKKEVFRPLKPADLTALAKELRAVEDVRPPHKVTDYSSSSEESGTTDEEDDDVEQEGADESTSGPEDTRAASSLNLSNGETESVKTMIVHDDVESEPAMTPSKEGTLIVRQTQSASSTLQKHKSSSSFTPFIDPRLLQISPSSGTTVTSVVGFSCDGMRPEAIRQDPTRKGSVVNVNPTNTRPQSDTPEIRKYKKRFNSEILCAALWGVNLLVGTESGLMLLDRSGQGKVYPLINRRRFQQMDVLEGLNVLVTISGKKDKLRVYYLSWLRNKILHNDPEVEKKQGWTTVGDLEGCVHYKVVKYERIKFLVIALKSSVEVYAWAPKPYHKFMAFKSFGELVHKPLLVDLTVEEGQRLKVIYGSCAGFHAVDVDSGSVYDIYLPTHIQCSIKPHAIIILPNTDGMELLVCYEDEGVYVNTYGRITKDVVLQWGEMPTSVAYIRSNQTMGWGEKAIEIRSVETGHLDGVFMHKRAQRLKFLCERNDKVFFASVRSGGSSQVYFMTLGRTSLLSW

COCCOc1ccc(-c2cn(-c3ccccc3)c3ncn(COP(=O)(O)O)c(=O)c23)cc1 [DMX-10001]
difference in IC50 against MAP4K4, DMX-10001 vs DMX-5804 [1]: > 750 fold
IC50 ([1]; cell-free biochemical assays, read-out: IC50 against MAP4K4): 2300 nM
VF during drug infusion [2]: did not occur
